Data set [1] concerns the target T1, human CYP2C19 (Homo sapiens, UniProt P33261). The following applies: for CYP2C19 Efficacy (in parenthesis): human.
Data set [2] concerns the target T2, human CYP2C9 (Homo sapiens, UniProt P11712). Kind of data set: P450-Glo CYP2C9 inhibition qHTS. For orientation: Quantitative high-throughput screening tests each substance at several concentrations.
For data set [3], the target named is T3, human CYP1A2 (Homo sapiens, UniProt P05177).
T3 sequence (P05177 1-516): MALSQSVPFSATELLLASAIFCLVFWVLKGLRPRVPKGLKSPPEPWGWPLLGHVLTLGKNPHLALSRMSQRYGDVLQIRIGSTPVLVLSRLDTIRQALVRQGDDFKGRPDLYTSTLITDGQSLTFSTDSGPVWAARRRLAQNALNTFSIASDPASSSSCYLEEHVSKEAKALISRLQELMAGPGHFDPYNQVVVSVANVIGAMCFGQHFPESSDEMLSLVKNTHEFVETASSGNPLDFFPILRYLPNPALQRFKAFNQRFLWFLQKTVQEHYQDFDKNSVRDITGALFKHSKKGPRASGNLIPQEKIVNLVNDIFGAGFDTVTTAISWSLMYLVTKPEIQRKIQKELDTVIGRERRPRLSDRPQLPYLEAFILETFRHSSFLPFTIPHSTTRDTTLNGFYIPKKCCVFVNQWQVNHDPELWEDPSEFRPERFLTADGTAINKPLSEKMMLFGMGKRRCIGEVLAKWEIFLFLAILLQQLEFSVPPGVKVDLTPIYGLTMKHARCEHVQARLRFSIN
Kind of data set: biochemical.

Data set [4] addresses T4, CYP3A4 (Homo sapiens, UniProt P08684). Briefly: biochemical. Particulars: for IC50: CYP3A4 IC50 (half-maximal inhibitory concentration).
Data set [5] deals with T5, human CYP2D6 (Homo sapiens, UniProt P10635). Briefly: P450-Glo CYP2D6 inhibition qHTS.
T5 sequence (P10635 whole entry): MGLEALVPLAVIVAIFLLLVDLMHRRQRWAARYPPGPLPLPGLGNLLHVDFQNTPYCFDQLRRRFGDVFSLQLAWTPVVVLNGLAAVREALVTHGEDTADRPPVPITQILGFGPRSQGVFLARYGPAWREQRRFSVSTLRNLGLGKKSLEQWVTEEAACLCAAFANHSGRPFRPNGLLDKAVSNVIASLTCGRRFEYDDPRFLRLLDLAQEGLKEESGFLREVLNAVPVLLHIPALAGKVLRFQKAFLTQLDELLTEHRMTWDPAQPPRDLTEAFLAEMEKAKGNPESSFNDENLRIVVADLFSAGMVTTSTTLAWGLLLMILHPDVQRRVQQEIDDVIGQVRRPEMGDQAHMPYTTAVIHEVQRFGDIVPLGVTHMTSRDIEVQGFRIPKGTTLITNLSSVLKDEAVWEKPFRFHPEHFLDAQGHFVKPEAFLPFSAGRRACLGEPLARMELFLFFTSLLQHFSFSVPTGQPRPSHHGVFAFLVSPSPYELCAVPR
The target of data set [6] is T3, human CYP1A2.
Data set [7] deals with T1, human CYP2C19. Briefly: P450-Glo CYP2C19 inhibition qHTS.
For data set [8], the target named is T2, human CYP2C9. Briefly: biochemical.
Data set [9] has as its target T1, human CYP2C19. Briefly: biochemical.
Data set [10] concerns the target T4, CYP3A4.
Data set [11] concerns the target Photinus pyralis (firefly) luciferase (Photinus pyralis, UniProt P08659). Briefly: biochemical. It is filed as biochemical.
Data set [12] addresses T5, human CYP2D6. Briefly: biochemical.
Data set [13] addresses T4, CYP3A4. Kind of data set: in vitro.
Data set [14] addresses T2, human CYP2C9. Particulars: for CYP2C9 Efficacy (in parenthesis): human.
Data set [15] addresses T5, human CYP2D6. Particulars: for CYP2D6 Efficacy (in parenthesis): human.
The conditions of data set [16]: in vivo; cited from earlier work.
[17] abbreviates: CYP2C9 IC50 (half-maximal inhibitory concentration).
[18] abbreviates: CYP1A2 IC50 (half-maximal inhibitory concentration).
Where [19] appears, read: CYP2C19 IC50 (half-maximal inhibitory concentration).
Setting [20] is: CYP2D6 IC50 (half-maximal inhibitory concentration).

Like-named read-outs stand apart in the source and are kept apart here.

A word on the AC50: it is the concentration giving half of the maximal activity seen. Usually IC50 stands for the concentration that gives 50% inhibition. Read a low IC50 as inhibition by little substance.

T1 sequence (P33261 whole entry): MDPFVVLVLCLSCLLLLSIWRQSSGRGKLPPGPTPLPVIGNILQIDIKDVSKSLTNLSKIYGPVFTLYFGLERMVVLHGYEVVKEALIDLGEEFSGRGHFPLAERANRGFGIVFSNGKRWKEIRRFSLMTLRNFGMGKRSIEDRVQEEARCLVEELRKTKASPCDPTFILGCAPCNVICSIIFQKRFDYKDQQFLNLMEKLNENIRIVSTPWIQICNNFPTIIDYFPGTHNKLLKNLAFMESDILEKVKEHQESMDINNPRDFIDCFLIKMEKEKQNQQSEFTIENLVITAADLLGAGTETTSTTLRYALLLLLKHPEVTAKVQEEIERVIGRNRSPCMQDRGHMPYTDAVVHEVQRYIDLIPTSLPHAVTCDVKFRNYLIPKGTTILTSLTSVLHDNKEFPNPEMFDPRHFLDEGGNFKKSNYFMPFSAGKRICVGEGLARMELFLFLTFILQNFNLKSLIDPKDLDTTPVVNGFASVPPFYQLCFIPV
Sequence of Photinus pyralis (firefly) luciferase (P08659 whole entry): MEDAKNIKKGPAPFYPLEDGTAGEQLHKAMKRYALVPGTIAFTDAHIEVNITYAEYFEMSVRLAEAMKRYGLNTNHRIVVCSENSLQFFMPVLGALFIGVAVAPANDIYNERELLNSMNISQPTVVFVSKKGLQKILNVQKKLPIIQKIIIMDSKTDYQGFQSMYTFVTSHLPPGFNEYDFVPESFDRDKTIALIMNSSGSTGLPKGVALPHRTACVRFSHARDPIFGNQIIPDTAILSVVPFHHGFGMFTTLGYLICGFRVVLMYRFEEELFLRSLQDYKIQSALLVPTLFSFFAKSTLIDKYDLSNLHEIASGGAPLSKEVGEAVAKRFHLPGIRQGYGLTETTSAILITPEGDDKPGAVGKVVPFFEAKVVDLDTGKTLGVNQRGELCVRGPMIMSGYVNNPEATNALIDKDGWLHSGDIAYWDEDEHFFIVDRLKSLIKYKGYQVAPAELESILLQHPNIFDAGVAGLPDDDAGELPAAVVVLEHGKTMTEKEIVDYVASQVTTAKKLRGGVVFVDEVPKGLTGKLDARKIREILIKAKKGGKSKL
T2 sequence (P11712 whole entry): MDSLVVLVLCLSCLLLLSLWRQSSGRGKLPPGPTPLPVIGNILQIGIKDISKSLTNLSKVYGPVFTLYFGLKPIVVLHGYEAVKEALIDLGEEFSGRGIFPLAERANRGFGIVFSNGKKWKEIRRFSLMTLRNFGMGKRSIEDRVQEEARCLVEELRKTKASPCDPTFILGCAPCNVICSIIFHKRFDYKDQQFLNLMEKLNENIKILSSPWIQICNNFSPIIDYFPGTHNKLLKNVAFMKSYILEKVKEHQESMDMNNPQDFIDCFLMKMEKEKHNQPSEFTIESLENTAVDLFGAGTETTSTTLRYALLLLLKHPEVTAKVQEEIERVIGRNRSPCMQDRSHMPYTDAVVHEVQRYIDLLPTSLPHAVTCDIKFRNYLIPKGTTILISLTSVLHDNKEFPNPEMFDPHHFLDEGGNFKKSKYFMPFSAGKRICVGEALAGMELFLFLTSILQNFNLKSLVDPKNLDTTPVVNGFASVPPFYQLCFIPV
T4 sequence (P08684 whole entry): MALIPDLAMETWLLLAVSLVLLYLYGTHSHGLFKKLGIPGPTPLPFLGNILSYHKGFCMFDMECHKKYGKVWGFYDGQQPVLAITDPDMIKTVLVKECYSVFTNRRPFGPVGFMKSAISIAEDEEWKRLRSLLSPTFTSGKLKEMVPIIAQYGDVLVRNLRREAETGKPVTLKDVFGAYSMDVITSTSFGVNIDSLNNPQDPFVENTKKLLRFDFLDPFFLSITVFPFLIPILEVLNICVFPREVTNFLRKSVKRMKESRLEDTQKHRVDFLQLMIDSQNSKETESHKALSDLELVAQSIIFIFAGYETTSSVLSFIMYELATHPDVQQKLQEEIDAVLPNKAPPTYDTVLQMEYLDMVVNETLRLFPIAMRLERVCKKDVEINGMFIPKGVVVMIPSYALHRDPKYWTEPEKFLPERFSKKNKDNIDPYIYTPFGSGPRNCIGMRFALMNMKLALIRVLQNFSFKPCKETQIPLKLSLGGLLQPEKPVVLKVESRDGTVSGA

As to `CC(C)(c1ccccc1)c1ccccc1` [2,2-Diphenylpropane], at human CYP2C19 [1], the “CYP2C19 AC50 (half-maximal activity concentration)” value (“CYP2C19 AC50” below) is on record as “Inactive”. Also, at human CYP2C9 [2], the “CYP2C9 AC50 (half-maximal activity concentration)” value is “Inconclusive inhibitor”. Besides, the AC50 on human CYP1A2 [3] was found to be 58.8 µM; at CYP3A4 [4], 34.4 ± 11.7 µM. On human CYP2D6 [5], the “CYP2D6 AC50 (half-maximal activity concentration)” value (“CYP2D6 AC50” below) was “Inconclusive inhibitor”.

Take `CSC(=O)c1cccc2nnsc12` [Acibenzolar-S-methyl]: on human CYP1A2 [6] (mean ± standard deviation from three experiments, negative = inhibition), the “CYP1A2 Efficacy (in parenthesis)” value is 0.77 ± 0.11 (-94 ± 7) %. The “CYP2C9 Efficacy (in parenthesis)” value on human CYP2C9 [2] (human) was 8.65 ± 1.19 (-93 ± 9) %. The “CYP2C19 Efficacy (in parenthesis)” value on human CYP2C19 [7] (human) was 13.25 ± 2.38 (-133 ± 9) %. Besides, the IC50 against human CYP2C9 [8] amounted to 8.65 µM; against human CYP1A2 [3], 0.77 µM; on human CYP2C19 [9], 13.2 µM; at human CYP2D6 [12], 34.3 µM. Moreover, the “CYP3A4 IC50 (half-maximal inhibitory concentration)” value on CYP3A4 [10] is given as “Inactive”. The “Luciferase IC50 (half-maximal inhibitory concentration)” value in data set [11] was “Inactive”. The “CYP2D6 Efficacy (in parenthesis)” value at human CYP2D6 [5] (human) was 34.28 ± 2.23 (-79 ± 6) %.

With `C=CCN1C[C@H](C(=O)N(CCCN(C)C)C(=O)NCC)C[C@@H]2c3cccc4[nH]cc(c34)C[C@H]21` [Cabergoline], the “CYP2C19 IC50” value on human CYP2C19 [1] is reported as “Inactive”. Besides, the “CYP1A2 IC50” value at human CYP1A2 [6] is recorded as “Inactive”. Further, the values for the IC50 against CYP3A4 [13] and at human CYP2D6 [12] (CYP2D6 IC50) were 1.02 µM and 1.47 µM, respectively. In data set [11], the “Luciferase IC50” value was “Inactive”. Also, the “CYP2C9 IC50” value at human CYP2C9 [14] was “Inactive”.

Turning to `CN(CC1(C)CCCO1)S(=O)(=O)c1ccc(Cl)c(S(N)(=O)=O)c1` (stereo not shown) [Mefruside], at human CYP2D6 [15], the “CYP2D6 AC50” value is “Inactive”. For the same compound, at human CYP1A2 [6], the “CYP1A2 AC50 (half-maximal activity concentration)” value is recorded as “Inactive”. On human CYP2C19 [7], the “CYP2C19 AC50” value is “Inconclusive inhibitor”. Further, the AC50 was 13.3 ± 8.76 µM on human CYP2C9 [8] and 15.8 ± 3.61 µM at CYP3A4 [4].

For the compound `CCc1c(C(=O)NN2CCCCC2)nn(-c2ccc(Cl)cc2Cl)c1-c1ccc(Br)cc1` [Surinabant], the “CYP2D6 AC50” value at human CYP2D6 [15] is on record as “Inactive”. In addition, the “CYP1A2 AC50 (half-maximal activity concentration)” value at human CYP1A2 [6] is “Inactive”. Also, at human CYP2C19 [7], the “CYP2C19 AC50” value is given as “Inconclusive inhibitor”. Further, the AC50 at human CYP2C9 [8] was 8.32 ± 1.06 µM; on CYP3A4 [4], 4.12 ± 1.72 µM.

Take `FC(F)C(F)(F)OCC(Cn1cncn1)c1ccc(Cl)cc1Cl` (stereo not shown) [Tetraconazole]: the “CYP2C19 Efficacy (in parenthesis)” value at human CYP2C19 [1] is reported as 0.02 ± 0.0 (-134 ± 5) %. Further, the “CYP2D6 Efficacy (in parenthesis)” value at human CYP2D6 [15] is on record as 12.32 ± 3.08 (-113 ± 2) %. Further, the “CYP1A2 Efficacy (in parenthesis)” value on human CYP1A2 [6] (human) is 6.09 ± 0.84 (-101 ± 7) %. Further, the half-inhibitory concentration (IC50) on human CYP2C9 [8] (setting [17]) was determined as 1.84 µM; on human CYP1A2 [3] (setting [18]) it was 6.09 µM; on human CYP2C19 [9] (setting [19]), 0.02 µM; at CYP3A4 [4] it was 0.25 µM; on human CYP2D6 [12] (setting [20]), 12.3 µM. Besides, the “CYP3A4 Efficacy (in parenthesis)” value at CYP3A4 [10] is 0.25 ± 0.06 (-66 ± 2) %. The “Luciferase IC50 (half-maximal inhibitory concentration)” value in data set [11] is on record as “Inactive”. The “CYP2C9 Efficacy (in parenthesis)” value on human CYP2C9 [14] is 1.84 ± 0.12 (-114 ± 7) %.

Consider `CCCOC/C(=N\c1ccc(Cl)cc1C(F)(F)F)n1ccnc1` [Triflumizole], for which the “CYP2C19 Efficacy (in parenthesis)” value on human CYP2C19 [1] is given as 0.36 ± 0.3 (-125 ± 6) %. Further, the “CYP2D6 Efficacy (in parenthesis)” value on human CYP2D6 [15] was 34.28 ± 2.23 (-99 ± 9) %. Also, the “CYP1A2 Efficacy (in parenthesis)” value on human CYP1A2 [6] (human) is 9.3 ± 0.63 (-102 ± 6) %. For the same compound, the IC50 was found to be 3.92 µM on human CYP2C9 [8] (setting [17]); 9.3 µM on human CYP1A2 [3] (setting [18]); 0.36 µM on human CYP2C19 [9] (setting [19]); 0.21 µM at CYP3A4 [4]; 34.3 µM on human CYP2D6 [12] (setting [20]). On CYP3A4 [10], the “CYP3A4 Efficacy (in parenthesis)” value was 0.21 ± 0.07 (-78 ± 2) %. Moreover, the “Luciferase IC50 (half-maximal inhibitory concentration)” value in data set [11] is “Inactive”. Moreover, at human CYP2C9 [14], the “CYP2C9 Efficacy (in parenthesis)” value is 3.92 ± 0.98 (-103 ± 3) %.

Consider `COC(=O)[C@@H]1[C@H]2C[C@H]3c4[nH]c5ccccc5c4CCN3C[C@@H]2CC[C@@H]1O` [Yohimbine, reference compound], for which the “Cmax (maximum plasma concentration)” value in [16] was 75 ng/mL. Besides, in data set [11], the “Luciferase IC50 (half-maximal inhibitory concentration)” value is reported as “Inactive”.

The record behind these values is publication PMC12155096 (International Journal of Molecular Sciences, 2025).
